The text below walks through data of doi:10.1101/2021.03.15.435551, “Discovery of SARS-CoV-2 papain-like protease inhibitors through a combination of high-throughput screening and FlipGFP-based reporter assay” (bioRxiv, 2021).

The target in assay [1] is T1, SARS-CoV-2 PL^pro (PL^pro; PL^pro-His) (Severe acute respiratory syndrome coronavirus 2, UniProt P0DTD1).
T1 construct: gene rep
The experiment in a line: FRET peptide cleavage assay. Type of assay: biochemical. As to conditions: Dabcyl-FTLRGG/APTKV-Edans substrate, 200 nM PLpro.

For another assay, the target named is T2, SARS-CoV-2 M^pro (Severe acute respiratory syndrome coronavirus 2, UniProt P0DTD1).
T2 construct: gene rep
The assay is described as follows: Mpro FRET peptide assay. Type of assay: biochemical. Particulars: pH 6.5; Dabcyl-KTSAVLQ/SGFRKME(Edans) substrate.

For assay [2], the target named is T3, SARS-CoV-2 PL^pro (pcDNA3.1 SARS2 PL^pro, FlipGFP assay) (Severe acute respiratory syndrome coronavirus 2, UniProt P0DTD1).
T3 construct: gene rep
The assay is described as follows: FlipGFP-PLpro reporter assay. Type of assay: cell-based. Particulars: GFP/mCherry ratio, 48 h.

Molecule `C[C@H](c1ccc(Cl)cc1)N(C)Cc1cc(O)ccc1Cl` [Jun9-13-4] yielded an IC50 in assay [1] of more than 20000 nM. `C[C@H](c1cccc2ccccc12)N(C)Cc1cccc2[nH]ccc12` [Jun9-75-4] had an IC50 in assay [1] of 620 nM. This counts as sub-micromolar.

The molecule `CC(c1ccccc1Cl)N(C)Cc1cc(O)ccc1Cl` (centres unmarked) [Jun9-13-7] displayed an IC50 in assay [1] of 7290 ± 1030 nM. The “inhibition at up to 200 μM” value at SARS-CoV-2 M^pro is more than 200 µM. Jun9-75-5: in assay [1], the midpoint of inhibition, the IC50, lay at 560 nM. The concentration giving a half-maximal response (EC50) in assay [2] is more than 60000 nM. In turn, `CC(c1cc(F)ccc1F)N(C)Cc1cc(O)ccc1Cl` (centres unmarked) [Jun9-29-5] displayed an IC50 in assay [1] of more than 20000 nM. On to `Cc1ccc(N)cc1CN(C)[C@H](C)c1cccc2ccccc12` [Jun9-53-2], for which the IC50 in assay [1] worked out at 890 nM. In other words, the sub-micromolar range.
